Measured values taken from US20090181931A1, “ANTIVIRAL ACTIVITY OF CIDOFOVIR AGAINST ONCOLYTIC VIRUSES” (priority 2008, published 2009).
pEC50: −log10 of the molar value. Where “and” joins values, the source holds several entries; their conditions need not be identical. Identical values can stand only once.

What was measured:
ONYX-015 = experiment: XTT assay, protection from cytopathic effect of ONYX-015 in H1299 cells; assay type: cell-based, adenovirus; conditions: for Protection (%) Ave. / Protection (%): ONYX-015 MOI 10, H1299, 7 days; for Protection (%): single wells, dihydrate
Protocol: Cells frozen in liquid nitrogen were thawed in water bath at 37° C., seeded at T25 flask, and cultured at 70-90% sub-confluent monolayer. Cells were detached with trypsin, and prepared suspension at a concentration of 1.0×10^4 cells/ml.
Cells were seeded in 96 well-plate (100 μL/well, 1000 cells/well), then cultured with 5% CO2 at 37° C.
Viruses were diluted at MOI of 0.1 (OBP-401) or 10 (ONYX-015) in H1299. Medium in each well was removed, 50 μL of diluted virus solution was added to each well of the plate. 2 hours later, medium was aspirated and replaced with fresh medium containing 2% FCS and serially diluted CDV. Cells were incubated with 5% CO2 at 37° C. for 7 days after infection.
100 μL of PBS, 50 μL of XTT labeling reagent, and 1 μL of ion coupling reagent per well of plate were mixed.
Medium in each well of plate was removed, and 150 μL of mixture prepared above was added to each well. Plate was incubated with 5% CO2 at 37° C. for 4 hours, and then calculated absorbance at 450 nm and 690 nm. Protection was determined by the formula below:
Protection(%)={OD(AdV(+):CDV(+))−OD(AdV(+):CDV(−))}/{OD(AdV(−):CDV(+))−OD(AdV(+):CDV(−))}×100.

Telomelysin (OBP-301) = experiment: Real-time quantitative PCR, viral E1A copy number, Telomelysin in H1299 cells; assay type: cell-based, adenovirus; conditions: for E1A copy number, % (relative to 0 μM) / E1A copy number/ng DNA: Telomelysin MOI 10, H1299, 24 hours
Protocol: Cells were seeded in 6-well plate (2 mL/well, 2×10^5 cells/well), and incubated with 5% CO2 at 37° C.
Viruses were diluted at a MOI of 10. Medium in each well was removed, 500 μL of diluted virus solution was added to each well of the plate. Plates were incubated with 5% CO2 at 37° C. for 2 hours with gently shaking every 15 minutes. Medium was aspirated, washed with PBS twice, and replaced with fresh medium containing 2% FCS and serially diluted CDV. Cells were incubated with 5% CO2 at 37° C. for 24 hours after infection.
Cells were detached with Trypsin-EDTA, and collected by centrifuging. Total DNA was extracted using QIAamp™ DNA Mini Kit according to manufacture's instructions with some modifications: addition of 20 μL of RNaseA in each sample when adding ProK. DNA was eluted by 50˜100 μL of D. W.
Concentration of DNA was determined by measuring O.D.260. Each DNA samples was diluted by D. W. at a concentration of 5 ng/μL.
Master-mix for E1A primer was prepared using LightCycler™ Faststart DNAMaster SYBR Green™ according to Table 1. Standard DNA was prepared by serially 10 times dilution of pCRII-E1A plasmid (1×10^9, 1×10^8, 1×10^7, 1×10^6, 1×10^5, 1×10^4, and 1×10^3 copies/μL). 2 μL of Sample or Standard DNA was and 18 μL of Master mix were added into capillaries (total volume was 20 μL per capillary).
Q-PCR was performed according to the program of Table 2 (LightCycler quicksystem 350S). Results obtained here were analyzed using LightCycler softwere.

Nc1ccn(C[C@@H](CO)OCP(=O)(O)O)c(=O)n1.O.O [CDV, 1-[(S)-3-hydroxy-2-(phosphonomethoxy)propyl]cytosine dihydrate]
Protection (%) Ave. (ONYX-015; CDV 0.01 μM): −1.092%
Protection (%) (ONYX-015; CDV 0.01 μM): −1.284% and −1.233% and −0.822% and −1.027%
Protection (%) Ave. (ONYX-015; CDV 0.06 μM): −0.642%
Protection (%) (ONYX-015; CDV 0.06 μM): −0.616% and −0.205% and 0.051% and −1.798%
Protection (%) Ave. (ONYX-015; CDV 0.32 μM): 1.516%
Protection (%) (ONYX-015; CDV 0.32 μM): 3.237% and 4.675% and −0.205% and −1.644%
Protection (%) Ave. (ONYX-015; CDV 1.6 μM): 2.646%
Protection (%) (ONYX-015; CDV 1.6 μM): 4.315% and 1.849% and −1.079% and 5.497%
Protection (%) Ave. (ONYX-015; CDV 8 μM): 5.703%
Protection (%) Ave. (ONYX-015; CDV 40 μM): 55.420%
Protection (%) (ONYX-015; CDV 40 μM): 50.912% and 58.926% and 55.536% and 56.306%
Protection (%) Ave. (ONYX-015; CDV 200 μM): 11.264%
Protection (%) (ONYX-015; CDV 200 μM): 10.121% and 16.902% and 9.350% and 8.682%
Protection (%) Ave. (ONYX-015; CDV 1000 μM): −0.783%
Protection (%) (ONYX-015; CDV 1000 μM): −2.312% and −2.260% and −2.363% and 3.802%
cytopathic effect induced by ONYX-015 (ONYX-015; H1299 cells, FIG. 2A): apparently inhibited
E1A copy number, % (relative to 0 μM) (Telomelysin (OBP-301); CDV 0.16 μM): 97.60%
E1A copy number/ng DNA (Telomelysin (OBP-301); CDV 0.16 μM): 1.461E+08 copy number/ng DNA
E1A copy number, % (relative to 0 μM) (Telomelysin (OBP-301); CDV 0.8 μM): 98.93%
E1A copy number/ng DNA (Telomelysin (OBP-301); CDV 0.8 μM): 1.481E+08 copy number/ng DNA
E1A copy number, % (relative to 0 μM) (Telomelysin (OBP-301); CDV 4 μM): 91.32%
E1A copy number/ng DNA (Telomelysin (OBP-301); CDV 4 μM): 1.367E+08 copy number/ng DNA
E1A copy number, % (relative to 0 μM) (Telomelysin (OBP-301); CDV 20 μM): 47.07%
E1A copy number/ng DNA (Telomelysin (OBP-301); CDV 20 μM): 7.046E+07 copy number/ng DNA
E1A copy number, % (relative to 0 μM) (Telomelysin (OBP-301); CDV 100 μM): 9.99%
E1A copy number/ng DNA (Telomelysin (OBP-301); CDV 100 μM): 1.496E+07 copy number/ng DNA
pEC50 (Telomelysin (OBP-301); NCI-H1299, H1299 cells, real-time quantitative PCR, read-out: EC50 (E1A), CDV concentration that reduces the relative E1A copy number of Telomelysin to 50%): 4.71
Viral E1A copy number (Telomelysin (OBP-301); Telomelysin, H1299 cells, dose-dependent manner): reduced
